Experiments:
Assay type in all cases: physicochemical
[1] = Octanol-water distribution coefficient, log D of the compound at pH 0.82 by stir flask method
[2] = Octanol-water partition coefficient, log P of noncharged form of compound at 0.15 M ionic strength by stir flask method
[3] = Octanol-water partition coefficient, log P of zwitter ionic form of compound at 0.15 M ionic strength by stir flask method
[4] = Octanol-water distribution coefficient, log D of the compound at pH 5.4 by stir flask method
[5] = Octanol-water distribution coefficient, log D of the compound at pH 13.18 by stir flask method
[6] = Octanol-water distribution coefficient, log D of the compound at pH 4.96 by stir flask method

Compound | logD [1] | logP [2] | logP [3] | logD [4] | logD [5] | logD [6]
CCOC(=O)C1=C[C@]2(CC)CCCN3CCc4c(n1c1ccccc41)[C@@H]32 [VINPOCETINE] | 0.94 | 4.45 |  |  |  | 
CC[C@@]12C=C(C(=O)O)n3c4c(c5ccccc53)CCN(CCC1)[C@H]42 | -0.05 | 3.46 | -1.03 | -0.97 | -0.07 | 
CCOC(=O)C1=C[C@]2(CC)CCCN3CCc4c(n1c1ccccc41)[C@H]32 | 0.9 | 4.75 |  |  |  | 
CC[C@@]12C=C(C(=O)O)n3c4c(c5ccccc53)CCN(CCC1)[C@@H]42 | 0.13 | 3.98 | -0.22 |  | 0.21 | -0.14

Reference: ChEMBL document CHEMBL2163255, “Zwitterions can be predominant in membrane penetration of drugs: experimental proof” (J Med Chem, 2012)
